Patent US20200247897A1, “THERAPEUTIC ANTIBODIES BASED ON MUTATED IGG HEXAMERS” (GENMAB B.V., priority 2017, published 2020)

Test system: panel of 235 cell lines representing 14 tumor lineages
Assay: ATPlite growth inhibition screening of a human cancer cell line panel (Horizon Discovery)
Type: cell-based
Description: A 72 hour ATPlite assay (except for DLD-1 and HCT116 cell lines, for which a 120 hour assay was performed) with growth inhibition analysis was performed in two parts at Horizon Discovery Ltd, UK. Samples were tested as four replicates in 384-well assay plates. Serial dilution series of antibody, starting from 0.072 μM final concentration was used for all tested cell lines. For TRAIL (Invitrogen; Cat # PHC1634) serial dilution series starting from 0.01 μM final concentration for the cell lines tested in the first part and 0.17 μM final concentration for the cell lines tested in the second part of the screening was used.

[1] = MCAS, ovary cancer, screening #1
[2] = MCF7, breast cancer, screening #2
[3] = MDA-MB-453, breast cancer (TNBC), screening #2
[4] = MDA-MB-468, breast cancer (TNBC), screening #2
[5] = OVCAR-5, ovary cancer, screening #1
[6] = OVK18, ovary cancer, screening #1
[7] = PK-1, pancreatic cancer, screening #1
[8] = PSN1, pancreatic cancer, screening #1
[9] = Panc 02.13, pancreatic cancer, screening #1
[10] = RERF-LC-KJ, NSCLC, screening #1
[11] = RT4, bladder cancer, screening #2
[12] = RT-112, bladder cancer, screening #2
[13] = SCaBER, bladder cancer, screening #1
[14] = SF295, neural tissue cancer, screening #2
[15] = SK-BR-3, breast cancer, screening #2
[16] = SNU119, ovary cancer, screening #1
[17] = SNU-308, liver cancer, screening #1
[18] = SW780, bladder cancer, screening #1
[19] = T47D, breast cancer, screening #2
[20] = T-24, bladder cancer, screening #2
[21] = TCCSUP, bladder cancer, screening #2
[22] = UM-UC-3, bladder cancer, screening #1

Substance: TRAIL: natural DR5 ligand, recombinant human TRAIL/APO-2L
- Max Inhibition (KURAMOCHI, ovary cancer, screening #1): 13.4%
- IC50 (LC1F, NSCLC, screening #1): 0.451 nM
- Max Inhibition (LC1F, NSCLC, screening #1): 74.3%
- IC50 (LC-1sq, NSCLC, screening #1): 0.781 nM
- Max Inhibition (LC-1sq, NSCLC, screening #1): 70.1%
- Max Inhibition (LCLC-97TM1, NSCLC, screening #1): 4.6%
- IC50 (LCLC-103H, NSCLC, screening #1): 8.02 nM
- Max Inhibition (LCLC-103H, NSCLC, screening #1): 54.2%
- Max Inhibition (LK-2, NSCLC, screening #1): 5.6%
- IC50 (LOU-NH91, NSCLC, screening #1): 5.38 nM
- Max Inhibition (LOU-NH91, NSCLC, screening #1): 63.0%
- Max Inhibition (LU-65, NSCLC, screening #1): 32.4%
- Max Inhibition (LU-99, NSCLC, screening #1): 6.3%
- IC50 (LUDLU-1, NSCLC, screening #1): 0.475 nM
- Max Inhibition (LUDLU-1, NSCLC, screening #1): 91.1%
- Max Inhibition (LXF-289, NSCLC, screening #1): 12.7%
- IC50 [1]: 56.8 nM
- Max Inhibition [1]: 48.4%
- IC50 [2]: 0.055 nM
- Max Inhibition [2]: 21.7%
- IC50 (MDA-MB-231, breast cancer (TNBC), screening #1): 0.11 nM
- IC50 (MDA-MB-436, breast cancer (TNBC), screening #2): 0.053 nM
- IC50 [3]: 34.6 nM
- Max Inhibition [3]: 20.7%
- IC50 [4]: 0.647 nM
- Max Inhibition [4]: 89.4%
- IC50 (MDST8, colorectal cancer, screening #1): 1.19 nM
- Max Inhibition (MEL-HO, melanoma, screening #1): 16.7%
- Max Inhibition (MEL-JUSO, melanoma, screening #1): 7.6%
- IC50 (MES-SA, endometrial cancer, screening #1): 0.107 nM
- IC50 (NCI-H460, NSCLC, screening #1): 0.853 nM
- Max Inhibition (NCI-H460, NSCLC, screening #1): 86.1%
- IC50 (NCI-H820, NSCLC, screening #1): 0.023 nM
- Max Inhibition (NCI-H820, NSCLC, screening #1): 100.0%
- IC50 (NMC-G1, neural tissue cancer, screening #2): 17.6 nM
- Max Inhibition (OV7, ovary cancer, screening #1): 20.4%
- IC50 [5]: 1.12 nM
- Max Inhibition [5]: 70.6%
- Max Inhibition (OVISE, ovary cancer, screening #1): 4.0%
- IC50 [6]: 0.23 nM
- Max Inhibition [6]: 80.0%
- Max Inhibition (OVTOKO, ovary cancer, screening #1): 28.0%
- IC50 [7]: 0.548 nM
- Max Inhibition [7]: 88.3%
- IC50 [8]: 0.205 nM
- Max Inhibition [8]: 86.9%
- IC50 [9]: 1.91 nM
- Max Inhibition [9]: 60.5%
- IC50 [10]: 0.633 nM
- Max Inhibition [10]: 68.9%
- IC50 (RL95-2, endometrial cancer, screening #1): 0.155 nM
- IC50 [11]: 0.244 nM
- Max Inhibition [11]: 91.5%
- IC50 [12]: 0.325 nM
- Max Inhibition [12]: 50.9%
- Max Inhibition (RVH-421, melanoma, screening #1): 22.5%
- IC50 [13]: 0.082 nM
- Max Inhibition [13]: 25.8%
- IC50 (SF126, neural tissue cancer, screening #2): 0.013 nM
- IC50 [14]: 0.023 nM
- Max Inhibition [14]: 87.5%
- IC50 [15]: 0.518 nM
- Max Inhibition [15]: 38.1%
- Max Inhibition (SK-MEL-30, melanoma, screening #1): 6.1%
- IC50 (SNB-75, neural tissue cancer, screening #2): 105 nM
- IC50 (SNG-II, endometrial cancer, screening #1): 1.03 nM
- IC50 (SNU5, gastric cancer, screening #1): 0.109 nM
- IC50 [16]: 0.082 nM
- Max Inhibition [16]: 83.7%
- IC50 (SNU1033, colorectal cancer, screening #1): 10.1 nM
- IC50 (SNU-175, colorectal cancer, screening #1): 0.122 nM
- IC50 [17]: 0.937 nM
- Max Inhibition [17]: 72.4%
- IC50 (SNU-407, colorectal cancer, screening #1): 0.098 nM
- IC50 (SNU-478, liver cancer, screening #1): 0.516 nM
- IC50 (SNU-601, gastric cancer, screening #1): 0.284 nM
- IC50 (SNU-620, gastric cancer, screening #1): 0.045 nM
- IC50 (SNU-668, gastric cancer, screening #1): 0.041 nM
- IC50 (SNU-719, gastric cancer, screening #1): 1.13 nM
- IC50 (SNU-869, liver cancer, screening #1): 2.95 nM
- Max Inhibition (SNU-878, liver cancer, screening #1): 36.2%
- IC50 (SNU-1197, colorectal cancer, screening #1): 0.053 nM
- IC50 (SNU-C2B, colorectal cancer, screening #1): 0.713 nM
- IC50 (SUM159PT, breast cancer (TNBC), screening #2): 0.033 nM
- IC50 (SW480, colorectal cancer, screening #1): 2.04 nM
- IC50 [18]: 0.016 nM
- Max Inhibition [18]: 97.9%
- IC50 (SW837, colorectal cancer, screening #1): 0.94 nM
- Max Inhibition (SW1573, NSCLC, screening #1): 13.9%
- IC50 (T3M-10, NSCLC, screening #1): 0.495 nM
- Max Inhibition (T3M-10, NSCLC, screening #1): 83.7%
- IC50 [19]: 347 nM
- Max Inhibition [19]: 8.4%
- IC50 [20]: 0.166 nM
- Max Inhibition [20]: 20.5%
- IC50 [21]: 0.048 nM
- Max Inhibition [21]: 51.5%
- IC50 (TE-4, head and neck cancer, screening #1): 0.107 nM
- IC50 (TE-6, head and neck cancer, screening #1): 3.92 nM
- IC50 (TE-9, head and neck cancer, screening #1): 0.3 nM
- IC50 (TEN, endometrial cancer, screening #1): 1.21 nM
- IC50 (U-87 MG, neural tissue cancer, screening #2): 0.053 nM
- IC50 [22]: 0.005 nM
- Max Inhibition [22]: 99.4%
- Max Inhibition (VMRC-LCD, NSCLC, screening #1): 19.2%
- Max Inhibition (WM-266-4, melanoma, screening #1): 42.5%
- IC50 (YD-15, head and neck cancer, screening #1): 0.114 nM
- IC50 (YH-13, neural tissue cancer, screening #2): 0.317 nM
- responder cell lines (maximum response threshold 70% inhibition) (monotherapy, 72 hour ATPlite assay): found for all tested tumor indications, except small cell lung cancer (SCLC)
